The values that follow come from ChEMBL document CHEMBL1255330, “Efficacy of SPK-843, a novel polyene antifungal, in a murine model of systemic cryptococcosis” (Antimicrob Agents Chemother, 2008).

One data set deals with Mus musculus. The experiment in a line: Toxicity in BALB/c mouse at 4 mg/kg, iv. The format is organism-based. Also on record: dose 4 mg/kg, route intravenous. The conditions noted are these: in vivo.
Data set [1] deals with Cryptococcus neoformans. The experiment in a line: Antifungal activity against Cryptococcus neoformans YC-11 infected in BALB/c mouse assessed as increase in mouse survival at 1 mg/kg, iv qd for 5 days. The format is functional, organism-based. Also on record: dose 1 mg/kg.
Data set [2] relates to Cryptococcus neoformans. Nature of the data set: Antifungal activity against Cryptococcus neoformans YC-11 infected in BALB/c mouse assessed as reduction in fungal burden in brain at 2 mg/kg, iv qd for 5 days measured after 7 days of infection. The format is functional.
Data set [3] deals with Cryptococcus neoformans. The experiment in a line: Antifungal activity against Cryptococcus neoformans YC-11 infected in BALB/c mouse brain assessed as reduction in multiple fungal induced abscesses at 1 mg/kg, iv qd for 5 days measured after 7 days of infection by histopathological analysis. Type of data set: functional, organism-based. Also on record: dose 1 mg/kg.
Data set [4] concerns Cryptococcus neoformans. The experiment in a line: Antifungal activity against Cryptococcus neoformans YC-11 infected in BALB/c mouse brain assessed as reduction in multiple fungal induced abscesses at 2 mg/kg, iv qd for 5 days measured after 7 days of infection by histopathological analysis. Type of data set: functional, organism-based. Also on record: dose 2 mg/kg.
Data set [5] relates to Cryptococcus neoformans. The experiment in a line: Antifungal activity against Cryptococcus neoformans YC-11 infected in BALB/c mouse assessed as reduction in fungal burden in brain at 4 mg/kg, iv treated qd for 5 days measured after 7 days of infection. Type of data set: functional.
The test system of data set [6] is Cryptococcus neoformans. Nature of the data set: Antifungal activity against Cryptococcus neoformans YC-11 infected in BALB/c mouse assessed as increase in mouse survival at 4 mg/kg, iv qd for 5 days. The format is functional, organism-based. The arrangement: dose 4 mg/kg.
For data set [7], the system named is Cryptococcus neoformans. Nature of the data set: Antifungal activity against Cryptococcus neoformans YC-11 infected in BALB/c mouse brain assessed as reduction in fungal induced abscesses at 4 mg/kg, iv qd for 5 days measured after 7 days of infection by histopathological analysis. Type of data set: functional, organism-based. The arrangement: dose 4 mg/kg.
The test system of data set [8] is Cryptococcus neoformans. The experiment in a line: Antifungal activity against Cryptococcus neoformans YC-11 by microdilution method. Type of data set: functional. (In general: Broth dilution looks for growth in wells or tubes with falling amounts of substance.)
In data set [9] the test system is Cryptococcus neoformans. Nature of the data set: Antifungal activity against Cryptococcus neoformans YC-11 infected in BALB/c mouse assessed as reduction in fungal burden in brain at 1 mg/kg, iv qd for 5 days measured after 7 days of infection. Type of data set: functional.
Data set [10] relates to Cryptococcus neoformans. The experiment in a line: Antifungal activity against Cryptococcus neoformans YC-11 infected in BALB/c mouse liver assessed as reduction in fungal induced liver damage at 4 mg/kg, iv qd for 5 days measured after 7 days of infection by histopathological analysis. Type of data set: functional, organism-based. The arrangement: dose 4 mg/kg.
The subject of data set [11] is Cryptococcus neoformans. The experiment in a line: Antifungal activity against Cryptococcus neoformans YC-11 infected in BALB/c mouse liver assessed as reduction in fungal induced liver damage at 0.7 mg/kg, iv qd for 5 days measured after 7 days of infection by histopathological analysis. The format is functional, organism-based. Also on record: dose 0.7 mg/kg.
Data set [12] has as its system Cryptococcus neoformans. The experiment in a line: Antifungal activity against Cryptococcus neoformans YC-11 infected in BALB/c mouse kidney assessed as reduction in fungal induced tubular cell necrosis at 0.7 mg/kg, iv treated qd for 5 days measured after 7 days of infection by histopathological analysis. Type of data set: functional, organism-based. Also on record: dose 0.7 mg/kg.

In data set [13] the test system is Cryptococcus neoformans. The experiment in a line: Antifungal activity against Cryptococcus neoformans YC-11 infected in BALB/c mouse assessed as increase in mouse survival at 0.5 mg/kg, iv qd for 5 days. Type of data set: functional, organism-based. The arrangement: dose 0.5 mg/kg.
Data set [14] concerns Cryptococcus neoformans. Nature of the data set: Antifungal activity against Cryptococcus neoformans YC-11 infected in BALB/c mouse assessed as increase in mouse survival at 0.7 mg/kg, iv qd for 5 days. Type of data set: functional, organism-based. Also on record: dose 0.7 mg/kg.
The test system of data set [15] is Cryptococcus neoformans. The experiment in a line: Antifungal activity against Cryptococcus neoformans YC-11 infected in BALB/c mouse assessed as reduction in fungal burden in brain at 40 mg/kg, iv qd for 5 days measured after 7 days of infection. The format is functional.
For data set [16], the system named is Cryptococcus neoformans. The experiment in a line: Antifungal activity against Cryptococcus neoformans YC-11 infected in BALB/c mouse assessed as reduction in fungal burden in brain at 20 mg/kg, iv qd for 5 days measured after 7 days of infection. Type of data set: functional.
The test system of data set [17] is Cryptococcus neoformans. The experiment in a line: Antifungal activity against Cryptococcus neoformans YC-11 infected in BALB/c mouse assessed as reduction in fungal burden in brain at 80 mg/kg, iv qd for 5 days measured after 7 days of infection. Type of data set: functional.
Data set [18] relates to Cryptococcus neoformans. Nature of the data set: Antifungal activity against Cryptococcus neoformans YC-11 infected in BALB/c mouse assessed as increase in mouse survival at 80 mg/kg, iv qd for 5 days. The format is functional, organism-based. The arrangement: dose 80 mg/kg.
In data set [19] the test system is Cryptococcus neoformans. The experiment in a line: Antifungal activity against Cryptococcus neoformans YC-11 infected in BALB/c mouse brain assessed as reduction in multiple fungal induced abscesses at 80 mg/kg, iv qd for 5 days measured after 7 days of infection by histopathological analysis. Also on record: dose 80 mg/kg. The format is functional, organism-based.

≈ marks a conversion by molar mass, not a printed value. Calls of active or inactive are those of the source. The rule behind the calls is not given here.

Turning to `CNc1ccc(C(=O)CC(O)CC[C@H](C)[C@H]2OC(=O)C[C@H](O)CC(=O)C[C@H](O)C[C@H](O)C[C@H](O)C[C@H](O)C[C@]3(O)C[C@H](O)[C@@H](C(=O)NCCN(C)C)C(C[C@@H](OC4O[C@H](C)[C@@H](O)[C@H](NC(=O)CN(C)C)[C@@H]4O)/C=C/C=C/C=C/C=C\C=C/C=C/C=C/[C@@H]2C)O3)cc1.O=C1O[C@H]([C@H](O)CO)C(O)=C1O` (some centres not stated), the Activity result in the data set on Mus musculus is recorded as “Non-toxic”. The outcome in the data set on Cryptococcus neoformans [1], with Cryptococcus neoformans [6] and with Cryptococcus neoformans [7] was Active. Also, the log10cfu is 6.44 in the data set on Cryptococcus neoformans [2], 3.45 in the data set on Cryptococcus neoformans [5] and 7.42 in the data set with Cryptococcus neoformans [9]. In addition, the outcome in the data set with Cryptococcus neoformans [3] and in the data set on Cryptococcus neoformans [4] was inactive. The MIC with Cryptococcus neoformans [8] was 0.125 µg/mL.
In the case of `C[C@@H]1[C@H](O)[C@@H](C)/C=C/C=C/C=C/C=C/C=C/C=C/C=C/[C@H](O[C@@H]2O[C@H](C)[C@@H](O)[C@H](N)[C@@H]2O)C[C@@H]2O[C@](O)(C[C@@H](O)C[C@@H](O)[C@H](O)CC[C@@H](O)C[C@@H](O)CC(=O)O[C@H]1C)C[C@H](O)[C@H]2C(=O)O` [AMPHOTERICIN B], the result in the data set on Cryptococcus neoformans [10], with Cryptococcus neoformans [11], with Cryptococcus neoformans [13] and with Cryptococcus neoformans [14] was Active. For the same molecule, in the data set with Cryptococcus neoformans [12], the outcome was inactive. This molecule gave a minimum inhibitory concentration (MIC) in the data set on Cryptococcus neoformans [8] of 0.25 µg/mL (≈ 0.271 µM).
Regarding `OC(Cn1cncn1)(Cn1cncn1)c1ccc(F)cc1F` [FLUCONAZOLE], the log10cfu was 6.71 in the data set with Cryptococcus neoformans [15], 7.03 in the data set with Cryptococcus neoformans [16] and 6.34 in the data set on Cryptococcus neoformans [17]. Further, in the data set on Cryptococcus neoformans [18], the outcome was Active. Moreover, in the data set on Cryptococcus neoformans [19], the result was inactive. The molecule also had an MIC against Cryptococcus neoformans [8] of 2 µg/mL (≈ 6.53 µM).

What is called MIC is the lowest concentration found to suppress growth. Low values mean inhibition by little substance, high ones a need for much substance.
